Test results reported in patent US20130210733A1, “METHODS OF TREATING LUNG DISEASE” (Cytokinetics, Inc., priority 2010, published 2013).
Like-named read-outs stand apart in the source and are kept apart here.

Columns and labels:
[1] = system: human pulmonary arterial smooth muscle cells from patients with idiopathic pulmonary arterial hypertension (IPAH HPASMC); experiment: IPAH HPASMC proliferation assay; assay type: cell-based; settings: for inhibition at 1 µM: Homo sapiens; for inhibition at 1 µM / effect on proliferation (in words) / inhibition of proliferation normalized to FBS-induced growth / effect of combined treatment versus single agents (in words): IPAH HPASMC; for effect on proliferation (in words): concentrations up to 1 uM
Protocol: (§1) Primary cultures of human pulmonary arterial smooth muscle cells were derived from distal blood vessels taken from lungs harvested from patients with idiopathic pulmonary arterial hypertension (IPAH) who had been treated with iloprost or a combination of epoprostenol and bosentan for at least 1.4 years. Cells were cultured for 24 hours in 6-well plates in a solution of human smooth muscle basal medium (SMBM; TCS Cellworks, UK) with 9% fetal bovine serum (FBS; Invitrogen, US) and penicillin-streptomycin (PenStrep; 50 units/mL; Invitrogen, US). The incubating solution was then changed to PenStrep in SMBM and the cells were allowed to incubate for another 48 hours. Test compounds were administered to the test wells as DMSO solutions with FBS (FBS and DMSO or SMBM were administered to the control wells). After 96 hours of incubation, the cells were trypsinized (0.05% trypsin/EDTA; Invitrogen, US) and 20 uL of cell suspension was added to 20 uL of Accustain solution T and Accustain solution N (Labtech, UK). The cells were counted and their viability assessed using an ADAM Automated Cell Counter (Digital Bio, Korea). Results were expressed in cell number per mL and percent growth compared to FBS-induced growth alone.

[2] = system: human pulmonary arterial smooth muscle cells from healthy patients (normal HPASMC); experiment: Normal HPASMC proliferation assay; assay type: cell-based; settings: for inhibition at 1 µM: Homo sapiens, read-out: inhibition of proliferation normalized to FBS-induced growth; for effect on proliferation (in words): normal HPASMC, 1 pM to 1 uM
Protocol: as §1
As a control, primary cultures of human pulmonary arterial smooth muscle cells were derived from distal blood vessels taken from lungs harvested from healthy patients according to procedure described in Example 1. Treprostinil sodium was tested in these cells under the conditions described in Example 1 at concentrations of 1 pM, 10 pM, 100 pM, 1 nM, 10 nM, 100 nM, and 1 uM. The experiment was repeated four times and the results were averaged.

[3] = Fibroblast proliferation assay; assay type: cell-based, human; settings: Homo sapiens, Fibroblast, read-out: inhibition of proliferation normalized to FBS-induced growth
Protocol: as §1
(§2) Using the procedure described in Example 1, primary cultures of human lung fibroblasts were derived from lungs harvested from patients with ideopathic pulmonary fibrosis (IPF) with secondary pulmonary arterial hypertension (PAH) who had previously been treated with epoprostenol, bosentan, and/or steroids. Treprostinil sodium was tested in these cells under the conditions described in Example 1 at concentrations of 1 pM, 10 pM, 100 pM, 1 nM, 10 nM, 100 nM, and 1 uM. The experiment was repeated four times and the results were averaged.

[4] = system: human lung fibroblasts from patients with ideopathic pulmonary fibrosis (IPF) with secondary pulmonary arterial hypertension (PAH); experiment: Fibroblast proliferation assay; assay type: cell-based; settings: for effect on proliferation (in words): lung fibroblasts from IPF patients with secondary PAH, 1 pM to 1 uM
Protocol: as §1, §2

[5] = 1 uM test compound, 96 hours incubation, cell count, read-out: inhibition of proliferation normalized to FBS-induced growth
[6] = 1 uM test compound, 96 hours incubation, cell count

SMILES: CCCC[C@@H](NC(=O)[C@@H](Cc1cn(C(=O)OC)c2ccccc12)NC(=O)[C@H](CC(C)(C)C)NC(=O)N1[C@H](C)CCC[C@@H]1C)C(=O)O [BQ788, reference compound]
- inhibition at 1 µM [1, 5]: ~20%
- effect on proliferation (in words) [1]: inhibited proliferation of IPAH cells at higher concentrations

SMILES: COC(c1ccccc1)(c1ccccc1)[C@H](Oc1nc(C)cc(C)n1)C(=O)O [ambrisentan, reference compound]
- inhibition at 1 µM [1, 5]: ~25%

SMILES: COc1ccccc1Oc1c(NS(=O)(=O)c2ccc(C(C)(C)C)cc2)nc(-c2ncccn2)nc1OCCO [bosentan, reference compound]
- inhibition at 1 µM [1, 5]: ~20%
- effect on proliferation (in words) [1]: inhibited proliferation of IPAH HPASMC cells at higher concentrations

SMILES: CC#CCC(C)[C@H](O)/C=C/[C@@H]1[C@H]2C/C(=C/CCCC(=O)O)C[C@H]2C[C@H]1O (stereo partly drawn) [iloprost, reference compound]
- inhibition at 1 µM [1, 5]: ~40%
- effect on proliferation (in words) [1]: inhibited proliferation of IPAH HPASMC cells in a dose dependent manner

SMILES: CC(C)Oc1ccc(C(=O)N[C@H](CNC(=O)CN(C)C)Cc2ccc(-c3cn4cccc([C@H](C)O)c4n3)cc2)cc1Cl [Compound B, 3-Chloro-N-{(1S)-2-[(N,N-dimethylglycyl)amino]-1-[(4-{8-[(1S)-1-hydroxyethyl]imidazo[1,2-c]pyridin-2-yl}phenyl)methyl]ethyl}-4-[(1-methylethyl)oxy]benzamide]
- inhibition of proliferation normalized to FBS-induced growth [1, 6]: approximately 95%
- effect on proliferation (in words) [1]: inhibited proliferation of IPAH cells in a dose dependent manner

SMILES: CS(=O)(=O)O.Cc1ccc(C(=O)N(CCCN)[C@@H](c2nc3cc(Cl)ccc3c(=O)n2Cc2ccccc2)C(C)C)cc1 [ispinesib mesylate, N-(3-aminopropyl)-N-[(1R)-1-(3-benzyl-7-chloro-4-oxo-3,4-dihydroquinazolin-2-yl)-2-methylpropyl]-4-methylbenzamide monomethanesulfonate]
- inhibition at 1 µM [2]: ~55%
- effect on proliferation (in words) [2]: inhibited proliferation of fibroblasts in a dose dependent manner
- potency compared with treprostinil sodium (in words) ([2]; normal HPASMCs): slightly more potent than treprostinil sodium
- inhibition at 1 µM [3]: ~75%
- potency compared with treprostinil sodium (in words) ([4]; lung fibroblasts derived from IPF patients with secondary PAH): significantly more potent than treprostinil sodium
- effect on proliferation (in words) [4]: inhibited proliferation of fibroblasts in a dose dependent manner
- inhibition at 1 µM ([1]; 96 h, read-out: inhibition of proliferation normalized to FBS-induced growth, 1 uM test compound, 96 hours incubation, cell count): ~80%
- inhibition at 1 µM ([1]; read-out: inhibition of proliferation normalized to FBS-induced growth, combination, 1 uM ispinesib mesylate and 10 nM treprostinil sodium): ~90%
- inhibition at 1 µM ([1]; read-out: inhibition of proliferation normalized to FBS-induced growth, combination, 1 uM ispinesib mesylate and 100 nM BQ788): ~75%
- inhibition at 1 µM ([1]; read-out: inhibition of proliferation normalized to FBS-induced growth, combination, 1 uM ispinesib mesylate and 100 nM ambrisentan): ~80%
- inhibition at 1 µM ([1]; read-out: inhibition of proliferation normalized to FBS-induced growth, combination, 1 uM ispinesib mesylate and 100 nM bosentan): ~99%
- inhibition at 1 µM ([1]; read-out: inhibition of proliferation normalized to FBS-induced growth, combination, 1 uM ispinesib mesylate, 100 nM ambrisentan and 100 nM BQ788): ~95%
- effect on proliferation (in words) [1]: inhibited proliferation of IPAH cells in a dose dependent manner
- potency in IPAH HPASMCs and fibroblasts compared with normal HPASMCs (in words) ([1]; comparison of Examples 9, 16 and 18): significantly more potent at inhibiting proliferation of IPAH HPASMCs and fibroblasts than normal HPASMCs
- effect of combined treatment versus single agents (in words) ([1]; ispinesib mesylate (1 pM to 1 uM) with 10 nM treprostinil sodium): enhanced the antiproliferative effects of either agent alone
- effect of combined treatment versus single agents (in words) ([1]; ispinesib mesylate (1 pM to 1 uM) with 100 nM bosentan): enhanced the antiproliferative effects of either agent alone

SMILES: Cc1ccc(C(=O)N(CCCN)[C@@H](c2oc3cc(Cl)ccc3c(=O)c2Cc2ccccc2)C(C)C)cc1 [Compound A, N-(3-Aminopropyl)-N-[(R)-(1-3-benzyl-7-chloro-4-oxo-4H-chromen-2-yl)-2-methyl-propyl]-4-methyl-benzamide]
- inhibition of proliferation normalized to FBS-induced growth [1, 6]: approximately 70%
- effect on proliferation (in words) [1]: inhibited proliferation of IPAH cells in a dose dependent manner

SMILES: CCCCC[C@H](O)CC[C@@H]1[C@H]2Cc3cccc(OCC(=O)O)c3C[C@H]2C[C@H]1O [treprostinil sodium, reference compound]
- inhibition at 1 µM ([2]; 1 uM test compound, normal HPASMC from healthy patients): ~35%
- effect on proliferation (in words) [2]: inhibited normal HPASMC proliferation at higher concentrations
- inhibition at 1 µM ([3]; 1 uM test compound, lung fibroblasts from IPF patients with secondary PAH): ~45%
- effect on proliferation (in words) [4]: inhibited proliferation of fibroblasts at higher concentrations
- inhibition at 1 µM [1, 5]: ~60%
- effect on proliferation (in words) [1]: inhibited proliferation of IPAH HPASMC cells in a dose dependent manner
